test system: Cellular Release of Amyloid Peptide 1-40; assay: Test 4: Inhibition of Cellular Release of Amyloid Peptide 1-40; format: cell-based, Chinese hamster; details: Cricetulus griseus, 24 h; read-out: Amyloid-β1-40 release IC50
Protocol: Chinese hamster ovary cells are transfected with the human gene for amyloid precursor protein. The cells are plated at a density of 8000 cells/well into 96-well microtiter plates and cultivated for 24 hours in DMEM cell culture medium containing 10% FCS. The test compound is added to the cells at various concentrations, and the cells are cultivated for 24 hours in the presence of the test compound.

| Structure (SMILES) | IC50 [nM] |
| --- | --- |
| C[C@@]1(c2cccc(NC(=O)c3ccc(Br)cn3)n2)COCC(N)=N1 [Example 1, 5-Bromo-pyridine-2-carboxylic acid [6-((R)-5-amino-3-methyl-3,6-dihydro-2H-[1,4]-oxazin-3-yl)-pyridin-2-yl]-amide] | 41 |
| NC1=NC(CF)(c2cccc(NC(=O)c3ccc(Cl)cn3)n2)COC1 (centres unmarked) [Example 3, 5-{6-[(5-Chloro-pyridine-2-carbonyl)-amino]-pyridin-2-yl}-5-fluoromethyl-5,6-dihydro-2H-[1,4]oxazin-3-yl-ammonium Trifluoro Acetate] | 140 |
| NC1=NC(CF)(c2cccc(NC(=O)c3ccc(Br)cn3)n2)COC1 (centres unmarked) [Example 4, 5-Bromo-pyridine-2-carboxylic acid [6-(5-amino-3-fluoromethyl-3,6-dihydro-2H-[1,4]oxazin-3-yl)-pyridin-2-yl]-amide] | 98 |
| Cc1cc(C#N)cnc1C(=O)Nc1cccc(C2(CF)COCC(N)=N2)n1 (centres unmarked) [Example 5, 5-Cyano-3-methyl-pyridine-2-carboxylic acid [6-(5-amino-3-fluoromethyl-3,6-dihydro-2H-[1,4]oxazin-3-yl)-pyridin-2-yl]-amide] | 40 |
| [2H]c1nc(C(=O)Nc2cccc(C3(CF)COCC(N)=N3)n2)c(C([2H])([2H])[2H])c([2H])c1Cl (centres unmarked) [Example 6, 4,6-Dideutero-5-chloro-3-trideuteromethyl-pyridine-2-carboxylic acid [6-(5-amino-3-fluoromethyl-3,6-dihydro-2H-[1,4]oxazin-3-yl)-pyridin-2-yl]-amide] | 63 |
| Cc1cc(C#N)cnc1C(=O)Nc1cccc([C@]2(C)CO[C@@](C)(C(F)(F)F)C(N)=N2)n1 [Example 8, 5-Cyano-3-methyl-pyridine-2-carboxylic Acid [6-((3R,6R)-5-amino-3,6-dimethyl-6-trifluoro-methyl-3,6-dihydro-2H-[1,4]oxazin-3-yl)-pyridin-2-yl]-amide] | 6 |
| C[C@]1(c2cccc(NC(=O)c3ccc(C#N)cn3)n2)CO[C@@](C)(C(F)(F)F)C(N)=N1 [Example 9, 5-Cyano-pyridine-2-carboxylic acid [6-((3S,6R)-5-amino-3,6-dimethyl-6-trifluoromethyl-3,6-dihydro-2H-[1,4]oxazin-3-yl)-pyridin-2-yl]-amide] | 1900 |
| C[C@@]1(c2cccc(NC(=O)c3ccc(C#N)cn3)n2)CO[C@@](C)(C(F)(F)F)C(N)=N1 [Example 10, 5-Cyano-pyridine-2-carboxylic acid [6-((3R,6R)-5-amino-3,6-dimethyl-6-trifluoromethyl-3,6-dihydro-2H-[1,4]oxazin-3-yl)-pyridin-2-yl]-amide] | 17 |
| Cc1cc(C#N)cnc1C(=O)Nc1ccc(F)c([C@]2(C)CO[C@@](C)(C(F)(F)F)C(N)=N2)n1 [Example 11, 5-Cyano-3-methyl-pyridine-2-carboxylic Acid [6-((3R,6R)-5-amino-3,6-dimethyl-6-trifluoromethyl-3,6-dihydro-2H-[1,4]oxazin-3-yl)-5-fluoro-pyridin-2-yl]-amide] | 2 |
| Cc1cc(C#N)cnc1C(=O)Nc1ccc(F)c([C@@]2(C)CO[C@@](C)(C(F)(F)F)C(N)=N2)n1 [Example 12, 5-Cyano-3-methyl-pyridine-2-carboxylic Acid [6-((3S,6R)-5-amino-3,6-dimethyl-6-trifluoromethyl-3,6-dihydro-2H-[1,4]oxazin-3-yl)-5-fluoro-pyridin-2-yl]-amide] | 280 |
| [2H]c1nc(C(=O)Nc2cc(C3(CF)COCC(N)=N3)ccn2)c(C([2H])([2H])[2H])c([2H])c1Cl (centres unmarked) [Example 13, 5-{2-[(5-Chloro-4,6-dideuterio-3-trideuteromethyl-pyridine-2-carbonyl)-amino]-pyridin-4-yl}-5-fluoromethyl-5,6-dihydro-2H-[1,4]oxazin-3-yl-ammonium Acetate] | 550 |
